The values that follow come from patent US10344060B2 (priority 2013, dated 2019).

The structures appear in SMILES notation. A value given as a limit tells only on which side of the number the result lay.

For the test, the target named is hNav1.7 (Homo sapiens, UniProt Q15858). Put plainly: cell-based. It is filed as cell-based. To be noted: Table 12; PatchXpress, tonic block; read-out: PX hNav1.7 Tonic IC50.
hNav1.7, sequence (Q15858 whole entry): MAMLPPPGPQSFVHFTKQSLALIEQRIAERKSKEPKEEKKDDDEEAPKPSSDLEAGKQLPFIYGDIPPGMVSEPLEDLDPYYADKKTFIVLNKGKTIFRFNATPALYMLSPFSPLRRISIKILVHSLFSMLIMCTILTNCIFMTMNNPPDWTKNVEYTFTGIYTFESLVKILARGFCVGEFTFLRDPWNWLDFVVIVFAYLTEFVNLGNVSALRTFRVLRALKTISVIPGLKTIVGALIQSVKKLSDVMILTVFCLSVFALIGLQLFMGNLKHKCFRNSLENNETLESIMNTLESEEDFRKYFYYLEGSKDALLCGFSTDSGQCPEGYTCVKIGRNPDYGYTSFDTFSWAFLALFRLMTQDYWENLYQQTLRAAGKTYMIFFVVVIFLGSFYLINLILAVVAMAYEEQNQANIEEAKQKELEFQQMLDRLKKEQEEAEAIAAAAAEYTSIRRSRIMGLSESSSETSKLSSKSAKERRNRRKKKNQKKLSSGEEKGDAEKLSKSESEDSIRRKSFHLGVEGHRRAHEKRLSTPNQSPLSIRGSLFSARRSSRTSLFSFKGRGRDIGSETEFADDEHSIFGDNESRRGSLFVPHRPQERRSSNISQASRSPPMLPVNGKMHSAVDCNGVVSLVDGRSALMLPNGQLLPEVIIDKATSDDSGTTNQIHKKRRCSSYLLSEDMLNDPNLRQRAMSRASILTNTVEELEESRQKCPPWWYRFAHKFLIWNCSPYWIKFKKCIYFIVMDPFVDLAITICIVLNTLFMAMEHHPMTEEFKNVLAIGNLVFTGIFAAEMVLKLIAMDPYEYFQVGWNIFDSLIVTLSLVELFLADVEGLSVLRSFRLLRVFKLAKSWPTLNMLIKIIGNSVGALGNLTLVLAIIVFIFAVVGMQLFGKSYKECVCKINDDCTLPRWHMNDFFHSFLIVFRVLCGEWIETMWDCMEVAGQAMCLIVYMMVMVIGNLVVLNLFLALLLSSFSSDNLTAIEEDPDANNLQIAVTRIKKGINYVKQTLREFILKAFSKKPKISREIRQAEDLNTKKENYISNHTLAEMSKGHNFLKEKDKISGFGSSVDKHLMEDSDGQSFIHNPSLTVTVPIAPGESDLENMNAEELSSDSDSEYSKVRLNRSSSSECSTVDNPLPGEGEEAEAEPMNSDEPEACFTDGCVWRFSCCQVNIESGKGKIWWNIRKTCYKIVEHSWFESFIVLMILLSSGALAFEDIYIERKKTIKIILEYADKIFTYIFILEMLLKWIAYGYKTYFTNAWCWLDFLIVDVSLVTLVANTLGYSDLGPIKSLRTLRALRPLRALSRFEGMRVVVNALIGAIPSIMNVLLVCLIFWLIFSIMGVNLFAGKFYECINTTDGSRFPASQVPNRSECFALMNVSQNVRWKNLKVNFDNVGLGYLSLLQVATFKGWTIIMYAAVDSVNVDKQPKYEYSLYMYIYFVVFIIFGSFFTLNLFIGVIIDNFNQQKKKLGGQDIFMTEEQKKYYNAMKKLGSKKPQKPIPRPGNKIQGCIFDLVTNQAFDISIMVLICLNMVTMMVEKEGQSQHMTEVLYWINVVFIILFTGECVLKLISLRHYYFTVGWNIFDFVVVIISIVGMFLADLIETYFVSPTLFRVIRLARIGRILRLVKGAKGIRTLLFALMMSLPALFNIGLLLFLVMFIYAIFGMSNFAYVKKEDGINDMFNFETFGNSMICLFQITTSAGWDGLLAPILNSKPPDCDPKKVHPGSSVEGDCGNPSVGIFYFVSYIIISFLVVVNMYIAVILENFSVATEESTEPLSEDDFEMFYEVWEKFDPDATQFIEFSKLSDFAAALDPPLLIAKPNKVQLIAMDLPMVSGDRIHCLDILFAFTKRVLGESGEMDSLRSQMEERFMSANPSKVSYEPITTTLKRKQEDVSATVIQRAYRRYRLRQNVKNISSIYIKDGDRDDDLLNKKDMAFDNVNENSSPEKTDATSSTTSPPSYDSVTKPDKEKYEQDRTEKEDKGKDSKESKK
For `C#CC[C@H](N)C(=O)N[C@@H](Cc1ccc(O)cc1)C(=O)N[C@H]1CSSC[C@@H]2NC(=O)[C@@H]3CSSC[C@@H](C(=O)N[C@@H](CCCNC(=N)N)C(=O)N[C@@H](CCCCN)C(=O)N[C@@H](CCC(=O)O)C(=O)N[C@H](C(N)=O)[C@@H](C)CC)NC(=O)[C@H](Cc4c[nH]c5ccccc45)NC(=O)[C@H](CC(C)C)NC(=O)[C@H](CCCCN)NC(=O)[C@H](CSSC[C@H](NC(=O)[C@H]([C@@H](C)O)NC(=O)[C@H](Cc4c[nH]c5ccccc45)NC(=O)[C@H](CCCC)NC(=O)[C@H](Cc4c[nH]c5ccccc45)NC(=O)[C@H](CCCCN)NC(=O)[C@H](CCC(N)=O)NC1=O)C(=O)N[C@@H](CC(=O)O)C(=O)N[C@@H](CO)C(=O)N[C@@H](CCCCN)C(=O)N[C@@H](CCCNC(=N)N)C(=O)N[C@@H](C)C(=O)N3)NC(=O)[C@H](CCCNC(=N)N)NC(=O)[C@H](CCCNC(=N)N)NC(=O)CNC(=O)[C@H](CCC(=O)O)NC2=O` [compound 705], the IC50 was more than 1000 nM.

In the case of `C#CC[C@H](N)C(=O)N[C@@H](Cc1ccc(O)cc1)C(=O)N[C@H]1CSSC[C@@H]2NC(=O)[C@@H]3CSSC[C@@H](C(=O)N[C@@H](CCCNC(=N)N)C(=O)N[C@@H](CCCCN)C(=O)N[C@@H](CCC(=O)O)C(=O)N[C@H](C(N)=O)[C@@H](C)CC)NC(=O)[C@H](Cc4c[nH]c5ccccc45)NC(=O)[C@H](CC(C)C)NC(=O)[C@H](CCCCN)NC(=O)[C@H](CSSC[C@H](NC(=O)[C@H]([C@@H](C)O)NC(=O)[C@H](Cc4c[nH]c5ccccc45)NC(=O)[C@H](CCCC)NC(=O)[C@H](Cc4c[nH]c5ccccc45)NC(=O)[C@H](CCCCN)NC(=O)[C@H](CCC(N)=O)NC1=O)C(=O)N[C@@H](CC(=O)O)C(=O)N[C@@H](CO)C(=O)N[C@@H](CCCCN)C(=O)N[C@@H](CCCNC(=N)N)C(=O)N[C@@H](C)C(=O)N3)NC(=O)[C@H](CCCNC(=N)N)NC(=O)[C@H](CC(C)C)NC(=O)[C@H](CCC(=O)O)NC(=O)[C@H](CCC(=O)O)NC2=O` [compound 719], the IC50 is more than 1000 nM.

On to `C#CC[C@H](N)C(=O)N[C@@H](Cc1ccc(O)cc1)C(=O)N[C@H]1CSSC[C@@H]2NC(=O)[C@@H]3CSSC[C@@H](C(=O)N[C@@H](CCCNC(=N)N)C(=O)N[C@@H](CCC(=O)O)C(=O)N[C@@H](CCC(=O)O)C(=O)N[C@H](C(N)=O)[C@@H](C)CC)NC(=O)[C@H](Cc4c[nH]c5ccccc45)NC(=O)[C@H](CC(C)C)NC(=O)[C@H](CCCCN)NC(=O)[C@H](CSSC[C@H](NC(=O)[C@H]([C@@H](C)O)NC(=O)[C@H](Cc4c[nH]c5ccccc45)NC(=O)[C@H](CCCC)NC(=O)[C@H](Cc4c[nH]c5ccccc45)NC(=O)[C@H](CCCCN)NC(=O)[C@H](CCC(N)=O)NC1=O)C(=O)N[C@@H](CC(=O)O)C(=O)N[C@@H](CO)C(=O)N[C@@H](CCCCN)C(=O)N[C@@H](CCCNC(=N)N)C(=O)N[C@@H](C)C(=O)N3)NC(=O)[C@H](CCCNC(=N)N)NC(=O)[C@H](CC(C)C)NC(=O)CNC(=O)[C@H](CCC(=O)O)NC2=O` [compound 725], for which the IC50 was more than 10000 nM.

Take `C#CC[C@H](N)C(=O)N[C@@H](Cc1ccc(O)cc1)C(=O)N[C@H]1CSSC[C@@H]2NC(=O)[C@@H]3CSSC[C@@H](C(=O)N[C@@H](CCCNC(=N)N)C(=O)N[C@@H](CCCCN)C(=O)N[C@@H](CCC(=O)O)C(=O)N[C@H](C(=O)N[C@@H](CCC(=O)O)C(N)=O)[C@@H](C)CC)NC(=O)[C@H](Cc4c[nH]c5ccccc45)NC(=O)[C@H](CC(C)C)NC(=O)[C@H](CCCCN)NC(=O)[C@H](CSSC[C@H](NC(=O)[C@H]([C@@H](C)O)NC(=O)[C@H](Cc4c[nH]c5ccccc45)NC(=O)[C@H](CCCC)NC(=O)[C@H](Cc4c[nH]c5ccccc45)NC(=O)[C@H](CCCCN)NC(=O)[C@H](CCC(N)=O)NC1=O)C(=O)N[C@@H](CC(=O)O)C(=O)N[C@@H](CO)C(=O)N[C@@H](CCCCN)C(=O)N[C@@H](CCCNC(=N)N)C(=O)N[C@@H](C)C(=O)N3)NC(=O)[C@H](CCCNC(=N)N)NC(=O)[C@H](CC(C)C)NC(=O)CNC(=O)[C@H](CCC(=O)O)NC2=O` [compound 726]: the IC50 is 32.4 nM.

Turning to `C#CC[C@@H]1NC(=O)[C@@H]2CSSC[C@H](NC(=O)[C@H](CCC(=O)O)NC(=O)[C@@H](N)CC#N)C(=O)N[C@@H](CCC(N)=O)C(=O)N[C@@H](CCCCN)C(=O)N[C@@H](Cc3c[nH]c4ccccc34)C(=O)N[C@@H](CCCC)C(=O)N[C@@H](Cc3c[nH]c4ccccc34)C(=O)N[C@@H]([C@@H](C)O)C(=O)N[C@H]3CSSC[C@H](NC(=O)[C@H](CCCNC(=N)N)NC(=O)[C@H](CC(C)C)NC(=O)CNC1=O)C(=O)N[C@@H](CCCCN)C(=O)N[C@@H](CC(C)C)C(=O)N[C@@H](Cc1c[nH]c4ccccc14)C(=O)N[C@H](C(=O)N[C@@H](CCCNC(=N)N)C(=O)N[C@@H](CCCCN)C(=O)N[C@@H](CCC(=O)O)C(=O)N[C@H](C(N)=O)[C@@H](C)CC)CSSC[C@H](NC(=O)[C@H](CCC(=O)O)NC(=O)[C@H](CCCNC(=N)N)NC(=O)[C@H](CCC(=O)O)NC(=O)[C@H](CO)NC(=O)[C@H](CC(=O)O)NC3=O)C(=O)N2` [compound 756], the IC50 was more than 1000 nM.

In the case of `C#CC[C@@H]1NC(=O)[C@@H]2CSSC[C@H](NC(=O)[C@H](CCC(=O)O)NC(=O)[C@@H](N)CC#N)C(=O)N[C@@H](CCC(N)=O)C(=O)N[C@@H](CCCCN)C(=O)N[C@@H](Cc3c[nH]c4ccccc34)C(=O)N[C@@H](CCCC)C(=O)N[C@@H](Cc3c[nH]c4ccccc34)C(=O)N[C@@H]([C@@H](C)O)C(=O)N[C@H]3CSSC[C@H](NC(=O)[C@H](CCCNC(=N)N)NC(=O)[C@H](CC(C)C)NC(=O)CNC1=O)C(=O)N[C@@H](CCCCN)C(=O)N[C@@H](CC(C)C)C(=O)N[C@@H](Cc1c[nH]c4ccccc14)C(=O)N[C@H](C(=O)N[C@@H](CCCNC(=N)N)C(=O)N[C@@H](CCCCN)C(=O)N[C@@H](CCC(=O)O)C(=O)N[C@H](C(N)=O)[C@@H](C)CC)CSSC[C@H](NC(=O)[C@H](CCC(=O)O)NC(=O)[C@H](CCCNC(=N)N)NC(=O)[C@H](CCC(=O)O)NC(=O)[C@H](CCC(=O)O)NC(=O)[C@H](CC(=O)O)NC3=O)C(=O)N2` [compound 757], the IC50 was more than 1000 nM.

For `C#CC[C@@H]1NC(=O)[C@@H]2CSSC[C@H](NC(=O)[C@H](CCC(=O)O)NC(=O)[C@H](CCC)NC(=O)[C@@H](N)CCC(=O)O)C(=O)N[C@@H](CCC(N)=O)C(=O)N[C@@H](CCCCN)C(=O)N[C@@H](Cc3c[nH]c4ccccc34)C(=O)N[C@@H](CCCC)C(=O)N[C@@H](Cc3c[nH]c4ccccc34)C(=O)N[C@@H]([C@@H](C)O)C(=O)N[C@H]3CSSC[C@H](NC(=O)[C@H](CCCNC(=N)N)NC(=O)[C@H](CC(C)C)NC(=O)CNC1=O)C(=O)N[C@@H](CCCCN)C(=O)N[C@@H](CC(C)C)C(=O)N[C@@H](Cc1c[nH]c4ccccc14)C(=O)N[C@H](C(=O)N[C@@H](CCCNC(=N)N)C(=O)N[C@@H](CCCCN)C(=O)N[C@@H](CCC(=O)O)C(=O)N[C@H](C(N)=O)[C@@H](C)CC)CSSC[C@H](NC(=O)[C@H](C)NC(=O)[C@H](CCCNC(=N)N)NC(=O)[C@H](CCCCN)NC(=O)[C@H](CCC(=O)O)NC(=O)[C@H](CC(=O)O)NC3=O)C(=O)N2` [compound 772], the IC50 was 15.2 nM.
